Active and inactive are the calls of the source. No cut-off for these calls is given here.

For one assay, the target named is Histone deacetylase. The assay is described as follows: Inhibition of HDAC in human HeLa nuclear extract using Boc-Lys(acetyl)-AMC or Boc-Lys (triflouroacetyl)-AMC as substrate preincubated for 5 mins followed by substrate addition and measured after 30 mins by fluorescence assay. It is filed as subcellular, Nucleus.
Assay [1] concerns the target T1, Apoptosis regulator BAX (Homo sapiens, UniProt Q07812). The assay is described as follows: Binding affinity to recombinant human full length His-tagged BAX expressed in Escherichia coli BL21 (DE3) cells preincubated for 30 min followed by FITC-BIM addition and measured after 20 mins by fluorescence polarization assay. A general note: In fluorescence polarisation assays a small probe gives low polarisation when free and higher when bound to something large.

The test system of the next assay is L02. The assay can be described thus: Cytotoxicity against human L02 cells assessed as reduction in cell viability after 48 hrs by MTT assay. It counts as ADME, cell-based. The following applies: L02, 48 h. (In general: Tetrazolium assays rely on reduction of a dye to a coloured formazan, in cell work by metabolically active cells.)
The test system of assay [2] is HeLa. The assay is described as follows: Antiproliferative activity against siRNA-induced BAX knock down human HeLa cells after 48 hrs by MTT assay. It counts as functional, cell-based.
In assay [3] the test system is HeLa. The assay is described as follows: induction of apoptosis in siRNA-induced BAX knock down human HeLa cells at 3 uM after 48 hr by annexin V FITC and propidium iodide staining based flow cytometric analysis. It counts as functional.
Assay [4] relates to HeLa. The assay is described as follows: Induction of mitochondrial membrane potential loss in human HeLa cells after 24 hrs by TMRE staining based fluorescence assay. As to conditions: dose microM 1-3, time 24.0 hrs. It is filed as functional, cell-based.
In assay [5] the test system is HeLa. The assay is described as follows: Induction of apoptosis in human HeLA cells at 0.3 to 1 uM after 48 hr by annexin V FITC and propidium iodide staining based flow cytometric analysis. It counts as functional, cell-based. The following applies: dose microM 0.3-1, time 48.0 hrs.
Assay [6] has as its system HeLa. The assay is described as follows: Induction of apoptosis in human HeLA cells at 3 uM after 48 hr by annexin V FITC and propidium iodide staining based flow cytometric analysis. It is filed as functional. For orientation: Flow cytometry measures light scatter and fluorescence of single cells or particles in a stream.
Assay [7] deals with HeLa. The assay is described as follows: Induction of apoptosis in human HeLA cells at 1 uM after 48 hr by laser confocal microscopic based TUNEL assay. It counts as functional, cell-based.
Assay [8] has as its system HeLa. The assay is described as follows: Induction of apoptosis in human HeLa cells assessed as formation of apoptotic bodies at 1 uM after 6 to 36 hrs by fluorescence microscopic method. It is filed as functional, cell-based. As to conditions: time hrs 6-36.
Assay [9] relates to HeLa. The assay can be described thus: Induction of apoptosis in human HeLa cells assessed as membrane blebbing at 1 uM after 6 to 36 hrs by fluorescence microscopic method. The following applies: time hrs 6-36. It is filed as functional, cell-based.
Assay [10] deals with HeLa. The assay can be described thus: Induction of apoptosis in human HeLa cells assessed as cellular shrinkage at 1 uM after 6 to 36 hrs by fluorescence microscopic method. It counts as functional, cell-based. As to conditions: time hrs 6-36.
Assay [11] has as its system HeLa. The assay can be described thus: Potency index, ratio of IC50 for SAHA to test compound IC50 for antiproliferation activity against human HeLa cells. It is filed as functional.
The subject of assay [12] is HeLa. The assay can be described thus: Potency index, ratio of IC50 for BSTA1 to test compound IC50 for antiproliferation activity against human HeLa cells. It counts as functional.
Assay [13] addresses T1, Apoptosis regulator BAX. The assay is described as follows: Activation of BAX in human HeLa cells assessed as confirmation activation at Bax6A7 after 6 to 12 hrs by immunoprecipitation assay. It counts as cell-based. The following applies: filed as activator, dose microM 0.3-3, time hrs 6-12.
The test system of assay [14] is HeLa. The assay can be described thus: Up regulation of BAX protein in human HeLa cells at 0.3 to 3 uM after 6 to 12 hrs by Western blot analysis. It is filed as functional, cell-based. As to conditions: dose microM 0.3-3, time hrs 6-12.
The next assay has as its target T2, Histone deacetylase 8 (Homo sapiens, UniProt Q9BY41).
T2 sequence (Q9BY41 whole entry): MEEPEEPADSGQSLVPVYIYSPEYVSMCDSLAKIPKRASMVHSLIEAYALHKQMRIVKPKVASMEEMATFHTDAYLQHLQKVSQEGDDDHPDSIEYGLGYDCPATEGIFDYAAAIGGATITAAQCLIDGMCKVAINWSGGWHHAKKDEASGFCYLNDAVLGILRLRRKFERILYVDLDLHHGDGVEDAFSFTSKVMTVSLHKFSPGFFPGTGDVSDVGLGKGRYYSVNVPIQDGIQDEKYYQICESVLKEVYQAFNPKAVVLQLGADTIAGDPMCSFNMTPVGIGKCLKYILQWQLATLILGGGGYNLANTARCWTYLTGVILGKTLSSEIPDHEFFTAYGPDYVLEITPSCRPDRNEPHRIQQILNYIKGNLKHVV
The assay can be described thus: Inhibition of HDAC8 (unknown origin) in using Boc-Lys(acetyl)-AMC or Boc-Lys (triflouroacetyl)-AMC as substrate preincubated for 5 mins followed by substrate addition and measured after 30 mins by fluorescence assay.

The target in another assay is Histone deacetylase 2 (Homo sapiens, UniProt Q92769). The assay is described as follows: Inhibition of HDAC2 (unknown origin) in using Boc-Lys(acetyl)-AMC or Boc-Lys (triflouroacetyl)-AMC as substrate preincubated for 5 mins followed by substrate addition and measured after 30 mins by fluorescence assay.
Chain of Histone deacetylase 2 (Q92769 whole entry): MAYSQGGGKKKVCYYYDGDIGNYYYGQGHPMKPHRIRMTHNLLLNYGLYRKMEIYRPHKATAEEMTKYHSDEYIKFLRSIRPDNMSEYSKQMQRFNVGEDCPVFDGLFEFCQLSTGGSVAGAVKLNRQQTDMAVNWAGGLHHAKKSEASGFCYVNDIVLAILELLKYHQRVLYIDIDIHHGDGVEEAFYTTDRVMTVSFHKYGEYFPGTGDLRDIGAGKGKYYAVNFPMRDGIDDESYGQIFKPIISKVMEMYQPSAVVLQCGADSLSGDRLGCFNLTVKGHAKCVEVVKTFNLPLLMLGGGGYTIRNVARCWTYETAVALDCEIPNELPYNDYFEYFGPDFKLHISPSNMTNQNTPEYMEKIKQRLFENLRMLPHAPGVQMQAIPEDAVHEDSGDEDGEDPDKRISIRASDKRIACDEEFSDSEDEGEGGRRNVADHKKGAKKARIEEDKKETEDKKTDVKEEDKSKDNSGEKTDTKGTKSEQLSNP
A further assay has as its target Histone deacetylase 1 (Homo sapiens, UniProt Q13547). The assay can be described thus: Inhibition of HDAC1 (unknown origin) in using Boc-Lys(acetyl)-AMC or Boc-Lys (triflouroacetyl)-AMC as substrate preincubated for 5 mins followed by substrate addition and measured after 30 mins by fluorescence assay.
The next assay deals with Bcl-2-like protein 1 (Homo sapiens, UniProt Q07817). The assay is described as follows: Binding affinity to full length His-tagged Bcl-xl (unknown origin) preincubated for 30 min followed by 5-FAM Bid-BH3 addition and measured after 20 mins by fluorescence polarization assay.
Chain of Bcl-2-like protein 1 (Q07817 whole entry): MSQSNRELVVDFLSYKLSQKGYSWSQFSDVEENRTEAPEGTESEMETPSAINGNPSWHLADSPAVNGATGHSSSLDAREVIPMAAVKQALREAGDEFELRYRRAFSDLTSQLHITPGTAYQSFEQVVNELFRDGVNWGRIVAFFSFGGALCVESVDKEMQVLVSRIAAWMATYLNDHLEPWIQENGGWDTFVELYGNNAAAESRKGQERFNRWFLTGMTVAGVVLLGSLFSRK
Assay [15] concerns the target Induced myeloid leukemia cell differentiation protein Mcl-1 (Homo sapiens, UniProt Q07820). The assay can be described thus: Binding affinity to full length His-tagged Mcl1 (unknown origin) preincubated for 30 min followed by 5-FAM Bid-BH3 addition and measured after 20 mins by fluorescence polarization assay.
Assay [16] addresses Apoptosis regulator Bcl-2 (Homo sapiens, UniProt P10415). The assay is described as follows: Binding affinity to full length His-tagged Bcl2 (unknown origin) preincubated for 30 min followed by 5-FAM Bid-BH3 addition and measured after 20 mins by fluorescence polarization assay.
Assay [17] relates to HeLa. The assay can be described thus: Antiproliferative activity against human HeLa cells assessed as reduction in cell viability after 48 hrs by MTT assay. It is filed as functional, cell-based.
For assay [18], the system named is HeLa. The assay is described as follows: induction of apoptosis in siRNA-induced BAX knock down human HeLa cells at 0.3 to 3 uM after 48 hr by annexin V FITC and propidium iodide staining based flow cytometric analysis. It counts as functional, cell-based. The following applies: dose microM 0.3-3, time 48.0 hrs.
Assay [19] deals with HeLa. The assay can be described thus: Induction of mitochondrial membrane potential loss in human HeLa cells at 1 to 3 uM after 24 hrs by TMRE staining based fluorescence assay. It counts as functional, cell-based. As to conditions: dose microM 1-3, time 24.0 hrs.
In assay [20] the test system is HeLa. The assay can be described thus: Synergistic antiproliferative activity against human HeLa cells assessed as assessed as reduction in cell viability after 48 hrs in presence of SAHA by MTT assay. It counts as functional, cell-based.

T1 sequence (Q07812 whole entry): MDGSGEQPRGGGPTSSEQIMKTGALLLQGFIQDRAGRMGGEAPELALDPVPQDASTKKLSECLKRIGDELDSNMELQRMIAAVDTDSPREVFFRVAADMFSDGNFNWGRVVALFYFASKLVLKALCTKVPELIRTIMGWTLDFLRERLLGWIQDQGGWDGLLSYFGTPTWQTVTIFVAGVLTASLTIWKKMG
Chain of Induced myeloid leukemia cell differentiation protein Mcl-1 (Q07820 whole entry): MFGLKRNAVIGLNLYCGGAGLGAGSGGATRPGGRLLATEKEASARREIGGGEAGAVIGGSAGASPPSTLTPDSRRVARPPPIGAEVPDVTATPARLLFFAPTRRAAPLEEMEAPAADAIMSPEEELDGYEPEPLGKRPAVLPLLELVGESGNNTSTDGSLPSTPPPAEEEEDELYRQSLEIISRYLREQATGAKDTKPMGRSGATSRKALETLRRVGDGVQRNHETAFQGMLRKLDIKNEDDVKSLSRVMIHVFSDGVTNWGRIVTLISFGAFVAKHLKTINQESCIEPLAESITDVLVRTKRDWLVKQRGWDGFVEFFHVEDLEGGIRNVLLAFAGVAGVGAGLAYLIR
Chain of Apoptosis regulator Bcl-2 (P10415 whole entry): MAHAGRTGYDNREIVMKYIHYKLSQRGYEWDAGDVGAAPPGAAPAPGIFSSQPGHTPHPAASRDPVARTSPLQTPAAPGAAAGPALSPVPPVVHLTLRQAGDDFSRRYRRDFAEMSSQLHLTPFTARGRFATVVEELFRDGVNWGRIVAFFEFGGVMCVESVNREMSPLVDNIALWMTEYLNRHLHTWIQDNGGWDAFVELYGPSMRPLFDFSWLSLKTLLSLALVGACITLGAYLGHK
Chain of Histone deacetylase 1 (Q13547 whole entry): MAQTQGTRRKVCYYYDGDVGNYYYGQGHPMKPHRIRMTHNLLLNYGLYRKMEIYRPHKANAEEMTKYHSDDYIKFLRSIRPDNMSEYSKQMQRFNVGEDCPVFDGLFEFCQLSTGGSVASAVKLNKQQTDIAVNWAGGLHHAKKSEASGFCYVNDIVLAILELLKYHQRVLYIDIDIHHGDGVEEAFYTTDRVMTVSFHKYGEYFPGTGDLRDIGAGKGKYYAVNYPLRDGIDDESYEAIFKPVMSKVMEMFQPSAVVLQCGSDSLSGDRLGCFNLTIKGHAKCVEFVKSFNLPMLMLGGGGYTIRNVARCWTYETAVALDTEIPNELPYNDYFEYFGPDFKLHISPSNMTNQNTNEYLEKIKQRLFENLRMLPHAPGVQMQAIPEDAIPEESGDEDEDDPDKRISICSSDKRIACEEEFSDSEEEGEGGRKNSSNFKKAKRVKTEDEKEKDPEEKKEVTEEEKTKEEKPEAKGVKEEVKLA

With `O=C(CCCCCNC(=O)c1ccc(-c2csc(N3N=C(c4ccccc4)/C(=N/Nc4nccs4)C3=O)n2)cc1)NO`, at Histone deacetylase, the IC50 is given as 87.5 nM. The EC50 at Apoptosis regulator BAX [1] is 809 nM.

On Histone deacetylase, `O=C(CCCCCCOc1ccc(-c2csc(N3N=C(c4ccccc4)/C(=N/Nc4nccs4)C3=O)n2)cc1)NO` returned an IC50 of 40.8 nM. In addition, the EC50 at Apoptosis regulator BAX [1] came to 856 nM.

On Histone deacetylase, `O=C(CCCCCOc1ccc(-c2csc(N3N=C(c4ccccc4)/C(=N/Nc4nccs4)C3=O)n2)cc1)NO` showed an IC50 of 75.8 nM. Further, the EC50 at Apoptosis regulator BAX [1] was determined as 925 nM.

`O=C(CCCCNC(=O)c1ccc(-c2csc(N3N=C(c4ccccc4)/C(=N/Nc4nccs4)C3=O)n2)cc1)NO`: the IC50 against Histone deacetylase was 207.4 nM. Moreover, at Apoptosis regulator BAX [1], the half-maximal effective concentration (EC50) was found to be 719 nM.

`O=C(NO)c1ccc(CNC(=O)c2ccc(-c3csc(N4N=C(c5ccccc5)/C(=N/Nc5nccs5)C4=O)n3)cc2)cc1`: the IC50 came out at 65200 nM in the assay on L02; 7550 nM with HeLa [2]; 1090 nM against Histone deacetylase 8; 198 nM against Histone deacetylase 2; 66 nM at Histone deacetylase 1; 62.8 nM on Histone deacetylase. Also, the IC50 with HeLa [17] worked out at 860 nM. For the same molecule, the Activity in the assay on HeLa [3] was 14.8%; in the assay on HeLa [4] it was “Dose-dependent effect”; with HeLa [6], 60%; at Apoptosis regulator BAX [13], “Dose-dependent effect”. The result in the assay with HeLa [5], with HeLa [7], with HeLa [8], with HeLa [9], in the assay with HeLa [10] and in the assay on HeLa [14] was Active. Further, the “Ratio IC50” value with HeLa [11] is listed as 15; with HeLa [12] it was 3. Also, the EC50 is > 10000 nM at Bcl-2-like protein 1, > 10000 nM in assay [15], > 10000 nM in [16] and 393 nM at Apoptosis regulator BAX [1].

For the molecule `O=C(/C=C/c1ccc(CNC(=O)c2ccc(-c3csc(N4N=C(c5ccccc5)/C(=N/Nc5nccs5)C4=O)n3)cc2)cc1)NO`, the IC50 against Histone deacetylase was found to be 1341.5 nM. In addition, the EC50 on Apoptosis regulator BAX [1] was determined as 2220 nM.

As to `O=C(CCCCCCC(=O)Nc1ccccc1)NO` [VORINOSTAT], the outcome with HeLa [18] was inactive. For the same molecule, the result in the assay with HeLa [19] and in the assay on HeLa [14] was Active. Besides, in the assay on HeLa [6], the Activity is 47.1%. Further, the EC50 at Apoptosis regulator BAX [1] is > 10000 nM.

On Histone deacetylase, `O=C(CCCCCCCOc1ccc(-c2csc(N3N=C(c4ccccc4)/C(=N/Nc4nccs4)C3=O)n2)cc1)NO` showed an IC50 of 135.2 nM. For the same molecule, at Apoptosis regulator BAX [1], the EC50 is 532 nM.

On Histone deacetylase, `O=C(CCCCCCNC(=O)c1ccc(-c2csc(N3N=C(c4ccccc4)/C(=N/Nc4nccs4)C3=O)n2)cc1)NO` displayed an IC50 of 98.8 nM. The EC50 on Apoptosis regulator BAX [1] is 1140 nM.

`O=C(CCCOc1ccc(-c2csc(N3N=C(c4ccccc4)/C(=N/Nc4nccs4)C3=O)n2)cc1)NO`: the IC50 at Histone deacetylase was found to be 674.8 nM. Besides, on Apoptosis regulator BAX [1], the EC50 stood at 725 nM.

The molecule `O=C(NO)c1ccc(-c2csc(N3N=C(c4ccccc4)/C(=N/Nc4nccs4)C3=O)n2)cc1` registered an IC50 against Histone deacetylase of 577.4 nM. The EC50 at Apoptosis regulator BAX [1] stood at 874 nM.

Consider `O=C(/C=C/c1ccc(COc2ccc(-c3csc(N4N=C(c5ccccc5)/C(=N/Nc5nccs5)C4=O)n3)cc2)cc1)NO`, for which the IC50 at Histone deacetylase worked out at 243.7 nM. Also, the EC50 on Apoptosis regulator BAX [1] was 992 nM.

As for `O=C(NO)c1ccc(COc2ccc(-c3csc(N4N=C(c5ccccc5)/C(=N/Nc5nccs5)C4=O)n3)cc2)cc1`, at Histone deacetylase, the IC50 came to 85 nM. Besides, on Apoptosis regulator BAX [1], the EC50 is 538 nM.

In the case of `O=C1/C(=N\Nc2nccs2)C(c2ccccc2)=NN1c1nc(-c2ccccc2)cs1`, the IC50 in the assay on L02 is 54200 nM; in the assay on HeLa [2], > 20000 nM; at Histone deacetylase, > 10000 nM; in the assay with HeLa [20] it was 810 nM; in the assay on HeLa [17] it was 11500 nM. The outcome in the assay on HeLa [18] was inactive. The result with HeLa [19] was Active. In the assay on HeLa [6], the Activity is 19.2%. For the same molecule, the EC50 (on Bcl-2-like protein 1; in [15]; in assay [16]) was > 10000 nM in each case.

As for `O=C(O)c1ccc(-c2csc(N3N=C(c4ccccc4)/C(=N/Nc4nccs4)C3=O)n2)cc1`, the IC50 against Histone deacetylase is > 10000 nM. The EC50 at Apoptosis regulator BAX [1] worked out at 704 nM.

Turning to `O=C(CCCCOc1ccc(-c2csc(N3N=C(c4ccccc4)/C(=N/Nc4nccs4)C3=O)n2)cc1)NO`, the IC50 against Histone deacetylase is given as 118.5 nM. Further, the EC50 at Apoptosis regulator BAX [1] is 967 nM.

As a reminder, the IC50 is the point on the concentration scale where inhibition reaches its midpoint. For orientation: EC50 means the midpoint of the concentration-response curve.

Source of the values: ChEMBL document CHEMBL4665844, “HDAC-Bax Multiple Ligands Enhance Bax-Dependent Apoptosis in HeLa Cells” (J Med Chem, 2020).
